Results from publication PMC11839854, “Exploration of (R)-[^11C]YH168 as a PET tracer for imaging monoacylglycerol lipase in the brain: from mice to non-human primates” (European Journal of Nuclear Medicine and Molecular Imaging, 2024).

Columns and labels:
Assay type in all cases: biochemical
[1] = molecular target: T1, monoacylglycerol lipase (MAGL) (Mus musculus, UniProt O35678); assay: enzymatic inhibition assay with mouse MAGL protein; supported by autoradiography and PET in wild-type vs MAGL knockout mice
T1 construct: gene Mgll
T1 sequence (O35678 1-303): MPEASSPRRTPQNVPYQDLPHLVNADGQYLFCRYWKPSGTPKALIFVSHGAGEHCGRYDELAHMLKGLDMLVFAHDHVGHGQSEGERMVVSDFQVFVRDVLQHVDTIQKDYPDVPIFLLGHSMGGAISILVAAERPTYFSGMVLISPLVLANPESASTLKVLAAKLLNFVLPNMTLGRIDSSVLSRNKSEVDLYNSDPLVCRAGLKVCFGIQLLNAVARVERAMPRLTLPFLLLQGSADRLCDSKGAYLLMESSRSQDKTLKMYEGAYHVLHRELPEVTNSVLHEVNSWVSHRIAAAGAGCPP

[2] = molecular target: T2, monoacylglycerol lipase (MAGL) (Homo sapiens, UniProt Q99685); assay: enzymatic inhibition assay with human MAGL protein
T2 construct: gene MGLL
T2 sequence (Q99685 1-303): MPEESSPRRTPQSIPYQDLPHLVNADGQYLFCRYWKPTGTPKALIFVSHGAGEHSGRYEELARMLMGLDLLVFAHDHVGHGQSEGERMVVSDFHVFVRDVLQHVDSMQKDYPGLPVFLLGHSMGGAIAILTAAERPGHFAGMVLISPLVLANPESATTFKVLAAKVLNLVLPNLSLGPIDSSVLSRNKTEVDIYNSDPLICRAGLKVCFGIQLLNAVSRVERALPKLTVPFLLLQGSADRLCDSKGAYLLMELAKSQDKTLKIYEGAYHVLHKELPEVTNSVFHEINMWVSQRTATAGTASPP

[3] = molecular target: T3, monoacylglycerol lipase (MAGL) (Macaca fascicularis, UniProt A0A2K5V664); assay: enzymatic inhibition assay with cynomolgus monkey MAGL protein
T3 sequence (A0A2K5V664 1-352): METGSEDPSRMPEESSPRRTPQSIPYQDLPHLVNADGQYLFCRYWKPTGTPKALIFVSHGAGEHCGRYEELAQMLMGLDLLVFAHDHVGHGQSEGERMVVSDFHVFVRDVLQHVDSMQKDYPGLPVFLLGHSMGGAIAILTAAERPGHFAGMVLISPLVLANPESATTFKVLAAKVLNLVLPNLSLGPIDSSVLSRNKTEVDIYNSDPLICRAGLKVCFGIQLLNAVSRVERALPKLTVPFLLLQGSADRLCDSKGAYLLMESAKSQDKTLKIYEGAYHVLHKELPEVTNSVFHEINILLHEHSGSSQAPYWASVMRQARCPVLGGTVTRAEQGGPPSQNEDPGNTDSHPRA

Structure (SMILES): Cc1cccc(-c2ccc(N3C[C@H](N4CCN(C(=O)c5ccco5)CC4)CC3=O)cc2)c1 [(R)-YH168]
- IC50 [1]: 3.8 nM
- IC50 [2]: 4 nM
- IC50 [3]: 2.7 nM
